From US8337869B2, “Analgesic cream” (priority 2007, dated 2012)

Assays:
LTB4 = test: Inhibition of LTB4 production by DPG; settings: concentrations of DPG contained in Theraflex
PGE2 = test: Inhibition of PGE2 production by DPG; settings: concentrations of DPG contained in Theraflex

## CC1(C)[C@@H](O[C@H]2O[C@H](C(=O)[O-])[C@@H](O)[C@H](O)[C@H]2O[C@@H]2O[C@H](C(=O)[O-])[C@@H](O)[C@H](O)[C@H]2O)CC[C@]2(C)[C@H]3C(=O)C=C4[C@@H]5C[C@@](C)(C(=O)O)CC[C@]5(C)CC[C@@]4(C)[C@]3(C)CC[C@@H]12.[K+].[K+] [DPG, dipotassium glycyrrhizinate]
LTB4
  inhibition of production of LTB4: greater than 50%
PGE2
  inhibition of production of PGE2: greater than 50%
